Experimental data from US4341770A, “Method of controlling ureaplasma infections” (Eli Lilly and Company, priority 1981, dated 1982).
Values after ≈ are worked out from the molar mass of the structure shown.

Assays:
[1] = test system: gram-positive bacteria; details: taught by U.S. Pat. No. 3,459,853; cited from earlier work
[2] = test system: Ureaplasma isolate 765T-3; assay: conventional broth-dilution assay, MIC against Ureaplasma isolate 765T-3; assay type: cell-based
Excerpt: (§1) For example, in the conventional broth-dilution assay, OMT had minimal inhibitory concentrations (MIC's) against four isolates of Ureaplasma as shown in Table I.

[3] = test system: Pasteurella species; assay: Treatment of pneumonia in calves (Example 1): control of Pasteurella; assay type: in vivo
Protocol: (§2) OMT was evaluated in calves for the treatment of naturally occurring pneumonia. Calves were purchased and transported to Lilly Research Laboratories, Greenfield, Indiana. The calves were weighed, bled, identified with eartags and allotted into pens soon after arrival. Rectal temperatures were taken and clinical observations were made daily.
(§3) Calves were put on test at the first signs of respiratory disease which included ocular and nasal discharges, pyrexia and/or depression.
(§4) Treated calves were injected intramuscularly with OMT in an aqueous propylene glycol vehicle. The treatment doses evaluated were 12.5 mg/kg and 25 mg/kg once a day for five days. Control calves were treated with placebo. There were 10 calves per group. Calves that died were examined at necropsy for lesions indicative of pneumomia. Surviving calves were killed seven days after the last treatment and examined for lesions at necropsy.

[4] = Prevention of naturally occurring pneumonia in calves with OMT (Example 2); assay type: in vivo; details: for cumulative mortality: 19 calves per group
Protocol: OMT was evaluated in calves for the prevention and control of naturally occurring pneumonia. Calves were purchased and transported to Lilly Research Laboratories, Greenfield, Ind. Soon after arrival the calves were weighed, bled, identified with eartags and allotted into pens. There were 19 calves in the OMT-treated group and 19 calves in the nontreated control group.
OMT was prepared as an injectable in an aqueous propylene glycol vehicle. The treated calves were each injected subcutaneously with 35 mg/lb (77 mg/kg) of OMT within a day after arrival. At this dose and route of administration, the drug was expected, based on blood level studies, to persist for seven days in the treated calves. The calves were each retreated with the same dose seven days later. Rectal temperatures were taken and clinical observations were made daily. Calves that died were examined at necropsy for lesions indicative of pneumonia.

[5] = Treatment of naturally occurring pneumonia in calves with OMT (Example 1); assay type: in vivo; details: for temperature averages of the calves: controls remained above 40° C. for 10 days; for calves that died: six of ten placebo-treated died
Protocol: Example one illustrates the useful in vivo activity of OMT against Ureaplasma. In the example OMT (free base) was administered in an aqueous propylene glycol solution, and non-medicated water and feed were provided to the animals ad libitum.
as §2, §3, §4

[6] = test system: Ureaplasma species; assay: Treatment of pneumonia in calves (Example 1): isolation of Ureaplasma from lung tissue; assay type: in vivo
Protocol: as §2, §3, §4

[7] = test system: Ureaplasma isolate 763T-2; assay: conventional broth-dilution assay, MIC against Ureaplasma isolate 763T-2; assay type: cell-based
Excerpt: as §1

[8] = test system: Ureaplasma isolate 779T-3; assay: conventional broth-dilution assay, MIC against Ureaplasma isolate 779T-3; assay type: cell-based
Excerpt: as §1

[9] = test system: Ureaplasma isolate 773T-2; assay: conventional broth-dilution assay, MIC against Ureaplasma isolate 773T-2; assay type: cell-based
Excerpt: as §1

[10] = test system: Ureaplasma species; details: background statement; cited from earlier work
[11] = 12.5 mg/kg intramuscular once a day for five days
[12] = 25 mg/kg intramuscular once a day for five days
[13] = 77 mg/kg subcutaneous, repeated after seven days, 14-day observation

CCC1OC(=O)CC(O)C(C)C(OC2OC(C)C(O)C(N(C)C)C2O)C(CC=O)CC(C)C(=O)C=CC(C)=CC1CO (stereo not drawn) [OMT, 5-O-mycaminosyl tylonolide]
inhibition of gram-positive bacteria [1]: inhibited gram-positive bacteria | MIC [2]: 1.56 µg/mL (≈ 2.61 µM) | control of Pasteurella species associated with this pneumonia [3, 11]: effectively controlled | control of Pasteurella species associated with this pneumonia [3, 12]: effectively controlled | preventing death of calves due to a severe pneumonia ([4]; 77 mg/kg subcutaneous, repeated after seven days): very effective in preventing death of calves | Scours [4, 13]: less severe | nasal and ocular discharges [4, 13]: less severe | average temperatures ([4]; 77 mg/kg subcutaneous, repeated after seven days, 14-day observation, vs non-medicated controls): lower | alertness and condition of calves ([4]; 77 mg/kg subcutaneous, repeated after seven days, vs controls): more alert and in better condition than the controls | cumulative mortality ([4]; day 1, control 0): 0 | cumulative mortality ([4]; day 2, control 0): 0 | cumulative mortality ([4]; day 3, control 0): 0 | cumulative mortality ([4]; day 4, control 1): 0 | cumulative mortality ([4]; day 5, control 3): 0 | cumulative mortality ([4]; day 6, control 5): 0 | cumulative mortality ([4]; day 7, control 5): 0 | cumulative mortality ([4]; day 8, control 5): 0 | cumulative mortality ([4]; day 9, control 9): 0 | cumulative mortality ([4]; day 10, control 11): 0 | cumulative mortality ([4]; day 11, control 13): 0 | cumulative mortality ([4]; day 12, control 14): 0 | cumulative mortality ([4]; day 13, control 14): 2 | cumulative mortality ([4]; day 14, control 15): 3 | calves that died with extensive pathologic lesions indicative of severe pneumonia ([4]; necropsy, 14 of the 15 control calves): 3 calves | Scours [5, 11]: reduced | ocular discharge [5, 11]: reduced | temperature averages of the calves [5, 11]: lowered to normal by the second day of treatment | calves that died [5, 11]: two of ten | Scours [5, 12]: reduced | ocular discharge [5, 12]: reduced | temperature averages of the calves [5, 12]: lowered to normal by the second day of treatment | calves that died [5, 12]: two of ten | Ureaplasma species isolated from lung tissue ([6]; 12.5 mg OMT/kg intramuscular once a day for five days, also isolated with placebo): isolated from lung tissue | elimination of the Ureaplasma species from the animals [6, 12]: eliminated the Ureaplasma species | Ureaplasma species isolated from calves ([6]; 25 mg/kg intramuscular once a day for five days, isolated from lung tissue of placebo calves): not isolated | MIC [7]: 0.78 µg/mL (≈ 1.3 µM) | MIC [8]: 1.56 µg/mL (≈ 2.61 µM) | MIC [9]: 1.56 µg/mL (≈ 2.61 µM)

CCC[C@@H]1C[C@@H](C(=O)N[C@@H]([C@H]2O[C@H](SC)[C@H](O)[C@@H](O)[C@H]2O)[C@@H](C)O)N(C)C1 [lincomycin]
resistance of Ureaplasma species [10]: resistant
